Laboratory results taken from PMC11535068, “Design, in silico studies and biological evaluation of novel chalcones tethered triazolo[3,4-a]isoquinoline as EGFR inhibitors targeting resistance in non-small cell lung cancer” (Scientific Reports, 2024).

Assays:
A549 = assay: MTT antiproliferative assay; conditions: Homo sapiens, A549, 24 h, read-out: IC50 A549
Description: (§4) Cell line cells were purchased from the American Type Culture Collection (ATCC, Manassas, VA) and were cultured according to the supplier’s instructions. […] The media was changed every 48 h, and the cells were split when 80–90% confluence was reached. Cell viability was evaluated by MTT assay.

total EGFR = biological target: T1, total EGFR (Homo sapiens, UniProt P00533); assay: EGFR inhibition assay on A549 cells (cloud clone SEA757Hu kit); format: cell-based; conditions: for IC50: total EGFR, A549 cells; for Fold more efficient in inhibiting EGFR than lapatinib: total EGFR IC50 ratio to Lapatinib
T1 construct: endogenous in cells; host or cells: A549
Description: (§1) EGFR inhibition assay was performed on A549 cancer cells using cloud clone product SEA757Hu 96 Ki, according to manufacturer’s instructions protocol. The homogeneous time-resolved fluorescence assay method was used to assess the inhibitory activity of 3e and 3f against EGFR^WT, EGFR^T790M and EGFR^L858R. The EGFR proteins (EGFR^WT, EGFR^T790M and EGFR^L858R) were obtained from Signalchem (BC V6V 2J2, Canada). ATP and other chemicals were obtained from Sigma. […] After 30 min, the reaction was stopped by adding detection reagents containing EDTA.

WI-38 = assay: MTT assay on normal lung cell line; conditions: Homo sapiens, WI-38, 24 h, read-out: IC50 WI-38
Description: as §4

HCT-116 = assay: MTT antiproliferative assay; conditions: Homo sapiens, HCT-116, 24 h, read-out: IC50 HCT-116
Description: as §4

MCF-7 = assay: MTT antiproliferative assay; conditions: Homo sapiens, MCF7, 24 h, read-out: IC50 MCF-7
Description: as §4

HT-29 = assay: MTT antiproliferative assay; conditions: Homo sapiens, HT-29, 24 h, read-out: IC50 HT-29
Description: as §4

PC3 = assay: MTT antiproliferative assay; conditions: Homo sapiens, PC-3, 24 h, read-out: IC50 PC3
Description: as §4

MMP1 = assay: RT-qPCR gene expression in A549 cells; format: cell-based, human; conditions: A549, 24 h, vs vehicle cells, beta-actin housekeeping gene
Description: (§2) The real-time polymerase chain reaction (RT-qPCR) technique was used to evaluate the gene expression. A panel of eight genes (P53, BAX, Caspase-3, Caspase-8, Caspase-9, MMP1, CDK4, and Bcl2) was chosen to estimate the compounds’ ability to induce apoptosis. A549 cancer cells were treated with 3e and 3f compounds for 24 h before total RNA extraction. While untreated A549 cancer cells were utilized as a negative control. One-step RT-qPCR was performed using the iScript™ One-Step RT-PCR kit with SYBR®. The primer pairs sequences for each gene used are mentioned in Table 7. Control reactions were formed […] or without the reverse transcriptase enzyme.

CDK4 = assay: RT-qPCR gene expression in A549 cells; format: cell-based, human; conditions: A549, 24 h, vs vehicle cells, beta-actin housekeeping gene
Description: as §2

Caspase 3 = assay: RT-qPCR gene expression in A549 cells; format: cell-based, human; conditions: A549, 24 h, vs vehicle cells, beta-actin housekeeping gene
Description: as §2

Bcl2 = assay: RT-qPCR gene expression in A549 cells; format: cell-based, human; conditions: A549, 24 h, vs vehicle cells, beta-actin housekeeping gene
Description: as §2

Bax = assay: RT-qPCR gene expression in A549 cells; format: cell-based, human; conditions: A549, 24 h, vs vehicle cells
Description: as §2

Caspase 9 = assay: RT-qPCR gene expression in A549 cells; format: cell-based, human; conditions: A549, 24 h, vs vehicle cells, beta-actin housekeeping gene
Description: as §2

P53 = assay: RT-qPCR gene expression in A549 cells; format: cell-based, human; conditions: A549, 24 h, vs vehicle cells
Description: as §2

Caspase 8 = assay: RT-qPCR gene expression in A549 cells; format: cell-based, human; conditions: A549, 24 h, vs vehicle cells, beta-actin housekeeping gene
Description: as §2

EGFR^L858R = biological target: T2, EGFR^L858R (Homo sapiens, UniProt P00533, L858R); assay: Homogeneous time-resolved fluorescence EGFR-TK assay; format: biochemical; conditions: selectivity index
T2 construct: purchased Signalchem
Description: as §1

EGFR^T790M = biological target: T3, EGFR^T790M (Homo sapiens, UniProt P00533, T790M); assay: as above; format: biochemical; conditions: selectivity index
T3 construct: purchased Signalchem
Description: as §1

A549 lung cancer cells [1] = assay: Cell cycle analysis (DNA content, flow cytometry); format: cell-based, human; conditions: A549, 24 h, at IC50; for DNA content Pre-G1%: vehicle 2.28%; for DNA content G2/M%: vehicle 8.99%; for DNA content S%: vehicle 44.26%; for DNA content G0–G1%: vehicle 46.75%
Description: (§3) Quantitation of DNA content was evaluated using the Annexin V-FITC Apoptosis Detection kit (BioVision, CA, USA). Dual staining for Annexin-V and PI allows the discrimination between live cells, necrotic cells, and cells in different phases of apoptosis. […] Then, cells were collected and washed with 1X phosphate-buffered saline. The cells were stained in the dark with annexin V-FITC and propidium iodide in a binding buffer and analyzed using the flow cytometer. The cell cycle profiles were analysed using MultiCycle software (Phoenix Flow Systems, San Diego, CA)[60].

A549 lung cancer cells [2] = assay: Annexin V-FITC/PI flow cytometric apoptosis analysis; format: cell-based, human; conditions: A549, 24 h, 3e 2.3 µM, 3f 1.15 µM (IC50); for Apoptosis Late (%): vehicle 0.21%; for Apoptosis Early (%): vehicle 0.49%; for Apoptosis Total (%): vehicle 0.70%; for Necrosis (%): vehicle 1.58%
Description: as §3

SMILES	IC50 (A549) [µM]	IC50 (total EGFR) [µM]	melting point [°C]	IC50 (WI-38) [µM]	IC50 (HCT-116) [µM]	IC50 (MCF-7) [µM]	IC50 (HT-29) [µM]	IC50 (PC3) [µM]	also measured
COc1cc2c(cc1OC)C1N(CC2)C(C(=O)C=Cc2cn(-c3ccccc3)nc2-c2ccccc2)=NN1c1ccccc1 (centres unmarked) [Compound 3a, 1-(8,9-Dimethoxy-1-phenyl-1,5,6,10b-tetrahydro-[1,2,4]triazolo[3,4-a]isoquinolin-3-yl)-3-(1,3-diphenyl-1H-pyrazol-4-yl)prop-2-en-1-one]	1.98 ± 0.5	1.62 ± 0.23	180 to 182	890.44 ± 0.13	8.15 ± 0.54	8.07 ± 0.1	16.2 ± 0.57	3.14 ± 1.76	
COc1cc2c(cc1OC)C1N(CC2)C(C(=O)C=Cc2cn(-c3ccccc3)nc2-c2ccccc2)=NN1c1ccc(C)cc1 (centres unmarked) [Compound 3b, 1-(8,9-Dimethoxy-1-(p-tolyl)-1,5,6,10b-tetrahydro-[1,2,4]triazolo[3,4-a]isoquinolin-3-yl)-3-(1,3-diphenyl-1H-pyrazol-4-yl)prop-2-en-1-one]	2.45 ± 0.68	1.89 ± 0.37	184 to 186	669.88 ± 0.26	9.41 ± 0.47	10 ± 0.23	5.05 ± 0.42	6.61 ± 1.63	
COc1ccc(N2N=C(C(=O)C=Cc3cn(-c4ccccc4)nc3-c3ccccc3)N3CCc4cc(OC)c(OC)cc4C32)cc1 (centres unmarked) [Compound 3c, 1-(8,9-Dimethoxy-1-(4-methoxyphenyl)-1,5,6,10b-tetrahydro-[1,2,4]triazolo[3,4-a]isoquinolin-3-yl)-3-(1,3-diphenyl-1H-pyrazol-4-yl)prop-2-en-1-one]	5.26 ± 0.49	0.059 ± 0.16	186 to 188	451.08 ± 0.11	5.4 ± 0.73	4.07 ± 0.38	4.69 ± 0.55	3.22 ± 1.37	
COc1cc2c(cc1OC)C1N(CC2)C(C(=O)C=Cc2cn(-c3ccccc3)nc2-c2ccccc2)=NN1c1ccc(Cl)cc1 (centres unmarked) [Compound 3d, 1-(1-(4-Chlorophenyl)-8,9-dimethoxy-1,5,6,10b-tetrahydro-[1,2,4]triazolo[3,4-a]isoquinolin-3-yl)-3-(1,3-diphenyl-1H-pyrazol-4-yl)prop-2-en-1-one]	4.68 ± 0.41	0.066	216 to 218	468.92 ± 0.17	14.1 ± 0.66	13.5 ± 0.29	15 ± 0.58	5.05 ± 1.43	
COc1cc2c(cc1OC)C1N(CC2)C(C(=O)C=Cc2cn(-c3ccccc3)nc2-c2ccccc2)=NN1c1ccc(Br)cc1 (centres unmarked) [Compound 3e, 1-(1-(4-Bromophenyl)-8,9-dimethoxy-1,5,6,10b-tetrahydro-[1,2,4]triazolo[3,4-a]isoquinolin-3-yl)-3-(1,3-diphenyl-1H-pyrazol-4-yl)prop-2-en-1-one]	2.3 ± 0.11		220 to 222	1731.9 ± 0.21	14.8 ± 0.31	4.21 ± 0.41	4.2 ± 0.38	2.72 ± 1.36	Fold more efficient in inhibiting EGFR than lapatinib (total EGFR): 1.42 fold; MMP1 gene expression fold change (MMP1): 0.37 fold; CDK4 gene expression fold change (CDK4): 0.44 fold; Caspase 3 gene expression fold change (Caspase 3): 9.29 fold; Bcl-2 gene expression fold change (Bcl2): 0.18 fold; Bax gene expression (in words) (Bax): significantly upregulated; Caspase 9 gene expression fold change (Caspase 9): 6.55 fold; p53 gene expression (in words) (P53): significantly upregulated; Caspase 8 gene expression fold change (Caspase 8): 4.23 fold; SI^a = EGFR^WT IC50/ EGFR^L858R IC50 (EGFR^L858R): 15.56; SI^b = EGFR^WT IC50/ EGFR^T790M IC50 (EGFR^T790M): 2.63; DNA content Pre-G1% (A549 lung cancer cells [1]): 16.02%; DNA content G2/M% (A549 lung cancer cells [1]): 22.74%; DNA content S% (A549 lung cancer cells [1]): 35.93%; DNA content G0–G1% (A549 lung cancer cells [1]): 41.33%; Apoptosis Late (%) (A549 lung cancer cells [2]): 4.5%; Apoptosis Early (%) (A549 lung cancer cells [2]): 4.26%; Apoptosis Total (%) (A549 lung cancer cells [2]): 8.76%; Necrosis (%) (A549 lung cancer cells [2]): 7.26%
COc1cc2c(cc1OC)C1N(CC2)C(C(=O)C=Cc2cn(-c3ccccc3)nc2-c2ccccc2)=NN1c1ccc([N+](=O)[O-])cc1 (centres unmarked) [Compound 3f, 1-(8,9-Dimethoxy-1-(4-nitrophenyl)-1,5,6,10b-tetrahydro-[1,2,4]triazolo[3,4-a]isoquinolin-3-yl)-3-(1,3-diphenyl-1H-pyrazol-4-yl)prop-2-en-1-one]	1.15 ± 0.38	0.023	224 to 226	1578 ± 0.23	4.61 ± 0.28	5.53 ± 0.33	2.41 ± 0.41	22.16 ± 0.18	Fold more efficient in inhibiting EGFR than lapatinib (total EGFR): 1.91 fold; MMP1 gene expression fold change (MMP1): 0.31 fold; CDK4 gene expression fold change (CDK4): 0.29 fold; Caspase 3 gene expression fold change (Caspase 3): 11.26 fold; Bcl-2 gene expression fold change (Bcl2): 0.13 fold; Bax gene expression (in words) (Bax): significantly upregulated; Caspase 9 gene expression fold change (Caspase 9): 9.32 fold; p53 gene expression (in words) (P53): significantly upregulated; Caspase 8 gene expression fold change (Caspase 8): 3.48 fold; SI^a = EGFR^WT IC50/ EGFR^L858R IC50 (EGFR^L858R): 25.95; SI^b = EGFR^WT IC50/ EGFR^T790M IC50 (EGFR^T790M): 4.52; DNA content Pre-G1% (A549 lung cancer cells [1]): 28.21%; DNA content G2/M% (A549 lung cancer cells [1]): 39.84%; DNA content S% (A549 lung cancer cells [1]): 26.42%; DNA content G0–G1% (A549 lung cancer cells [1]): 33.74%; Apoptosis Late (%) (A549 lung cancer cells [2]): 15.24%; Apoptosis Early (%) (A549 lung cancer cells [2]): 3.08%; Apoptosis Total (%) (A549 lung cancer cells [2]): 18.32%; Necrosis (%) (A549 lung cancer cells [2]): 9.89%
O=c1[nH]cc(F)c(=O)[nH]1 [Compound 5-FU, 5-fluorouracil, reference compound]	66.24 ± 0.36			210.69 ± 0.19	171.5 ± 0.23	160.3 ± 0.47	203.6 ± 0.48	178.2 ± 0.34	
C#Cc1cccc(Nc2ncnc3cc(OCCOC)c(OCCOC)cc23)c1 [Erlotinib, reference compound]	7.32 ± 0.52			1431.6 ± 0.22			9.5 ± 0.46	14.4 ± 0.78	
CS(=O)(=O)CCNCc1ccc(-c2ccc3ncnc(Nc4ccc(OCc5cccc(F)c5)c(Cl)c4)c3c2)o1 [Lapatinib, reference compound]	9.66 ± 0.44			1239.4 ± 0.18	5.92 ± 0.45	5.02 ± 1.1	8.23 ± 0.33	13.7 ± 0.89	
